Each block holds one compound with its values, some of them ahead of it.
Experiments:
LnCaP and MCF-7 cells = experiment: Trypan blue exclusion viability assay, Tables 2-4; assay type: cell-based; conditions: 5.0 μM compound, 48 hours; for viability at 5 µM: read-out: % viable LnCaP and MCF-7 cells
Experimental: (§1) The effect of the styryl sulfones on the growth of normal and tumor cells of breast and prostate was examine utilizing four cell lines, NIH3T3, MCF-7, BT-20 and LnCap. NIH/3T3 cells represent normal fibroblasts while LnCap is an androgen-dependent prostate tumor cell line. MCF-7 is an estrogen-responsive breast tumor cell line, while BT-20 is an estrogen-unresponsive breast tumor cell line. MCF-7 and BT-20 were grown in Dulbecco's modified Eagle's medium (DMEM) containing 10% fetal bovine serum supplemented with penicillin and streptomycin. LnCaP were cultured in RPMI with 10% fetal bovine serum containing penicillin and streptomycin. NIH3T3 cells were grown in DMEM containing 10% calf serum supplemented with penicillin and streptomycin. All cell cultures were maintained at 37° C. in a humidified atmosphere of 5% CO2.
Cells were treated with test compound at 2.5 μM or 5.0 μM concentration and cell viability was determined after 48 hours by the Trypan blue exclusion method. The compounds identified in Tables 2, 3 and 4 inhibited cell growth and induced cell death, to varying degrees. The tables list the percent viable LnCap and MCF-7 cells treated with 5.0 μM compound.

[1] = test system: LnCaP, BT-20 and MCF-7 cells; experiment: Trypan blue exclusion viability/proliferation assay (dose and time course); assay type: cell-based; conditions: 2.5 mM (FIG. 1A) and 5.0 mM (FIG. 1B), 48 hours of treatment
[2] = Trypan blue exclusion viability assay, normal fibroblasts; assay type: cell-based; set-up: viability at 48 h: dose or concentration left out as unconfirmed; conditions: mouse, NIH3T3 cells (normal fibroblasts); for viability at 48 h: 48 hours incubation, read-out: viable NIH3T3 cells
Experimental: as §1
(§2) The compounds identified in Tables 2, 3 and 4 inhibited cell growth and induced cell death, to varying degrees. The tables list the percent viable LnCap and MCF-7 cells treated with 5.0 μM compound.
(§3) The percentage of living cells was determined by Trypan blue exclusion. The control cells were treated with DMSO to determine the effect of solvent on cells. […] Under these conditions, only 2-3% of NIH3T3 cells were non-viable at both the concentrations. […] After 48 hours incubation, 60-75% of the LnCaP, BT-20 and MCF-7 cells were dead at […] FRI-20 concentration, whereas more than 90% of NIH3T3 cells were viable (FIG. 2A).

H157 = experiment: GI50 growth inhibition, trypan blue cell count; assay type: cell-based, human; conditions: lung, non-small cell, 96 hours after addition
Experimental: (§4) The human carcinoma cell lines listed in Table 5 below were purchased from ATCC and grown in an appropriate growth medium containing 10% fetal bovine serum (FBS) and antibiotics. The cells were plated at a cell density of 1.0×10^5 cells per […] in 6-well dishes. The cells were treated with various concentrations of (E)-fluorostyryl-4-bromobenzylsulfone 24 hours after plating in a total volume of 1 ml of medium using dimethylsulfoxide (DMSO) as a solvent for the compound. Control cells were treated with DMSO alone. The total number of viable cells was determined 96 hours after the addition of the compound by counting the cells in each well using a hemacytometer after trypan blue staining (viable cells exclude the stain). The counts were done in duplicate and the average was graphed in FIG. 8 as a percentage of the non-treated control group.

DU145 = experiment: GI50 growth inhibition, trypan blue cell count; assay type: cell-based, human; conditions: prostate, androgen receptor negative, 96 hours after addition
Experimental: as §4

DLD-1 = experiment: GI50 growth inhibition, trypan blue cell count; assay type: cell-based, human; conditions: cob-rectal, 96 hours after addition
Experimental: as §4

MIA-PaCa-2 = experiment: GI50 growth inhibition, trypan blue cell count; assay type: cell-based, human; conditions: pancreatic, 96 hours after addition
Experimental: as §4

U87 = experiment: GI50 growth inhibition, trypan blue cell count; assay type: cell-based, human; conditions: glioblastoma, 96 hours after addition
Experimental: as §4

BT20 = experiment: GI50 growth inhibition, trypan blue cell count; assay type: cell-based, human; conditions: breast, estrogen receptor negative, 96 hours after addition
Experimental: as §4

SK-MEL-28 = experiment: GI50 growth inhibition, trypan blue cell count; assay type: cell-based; conditions: Homo sapiens, melanoma, 96 hours after addition
Experimental: as §4

[3] = test system: LnCaP, BT-20 and MCF-7 cells; experiment: Trypan blue exclusion viability/proliferation assay (dose and time course); assay type: cell-based
Experimental: as §1, §2
as §3, with “NIH3T3, MCF-7, BT-20 and LnCaP cells were treated with FRI-20 dissolved in DMSO to concentrations of 250 nM, 500 nM, 1 μM, 2.5 μM and 5 μM and examined for their proliferation and viability after 48 hours (FIG. 2A). The percentage” for “The percentage”
NIH/3T3, MCF-7, BT-20 and LnCap were treated with FRI-20 at 2.5 μM and the number of viable cells was determined at 12, 24, 48 and 72 hours by Trypan blue exclusion.

LnCaP cells = experiment: Comparison with cisplatin, Trypan blue viability after 72 hours; assay type: cell-based; conditions: LnCaP, 72 hours, Trypan blue exclusion
Experimental: (§5) The killing effect of FR-20 on androgen-sensitive (LnCaP) and androgen insensitive (DU145) prostate tumor cells was compared to the effect of cisplatin (cis-diamminedichloroplatinum II), a widely used anti-prostate cancer agent. The cells were grown as in Example 26. FRI-20 or cisplatin was dissolved in DMSO and added to the cells at various concentrations. Viability was determined after 72 hours by the Trypan blue exclusion method. The concentration of FRI-20 required to completely kill LnCaP and DU145 cells was 2.5 μM and 5.0 μM, respectively. Under identical conditions, complete killing of LnCaP and DU145 cells by cisplatin required 25 μM and 15 μM concentrations, respectively.

DU145 cells = experiment: as above; assay type: cell-based; conditions: DU145, 72 hours, Trypan blue exclusion
Experimental: as §5

Structure (SMILES): O=S(=O)(/C=C/c1ccccc1)c1ccccc1 [Example 1, E-styryl Phenyl Sulfone]
viability at 5 µM (LnCaP and MCF-7 cells): 89%

Structure (SMILES): O=S(=O)(/C=C/c1ccc(Cl)cc1)c1ccccc1 [Example 2, E-4-chlorostyryl Phenyl Sulfone]
viability at 5 µM (LnCaP and MCF-7 cells): 90%

Structure (SMILES): O=S(=O)(/C=C/c1ccc(Cl)cc1Cl)c1ccccc1 [Example 3, E-2,4-dichlorostyryl Phenyl Sulfone]
viability at 5 µM (LnCaP and MCF-7 cells): 88%

Structure (SMILES): O=S(=O)(/C=C/c1ccc(Br)cc1)c1ccccc1 [Example 4, E-4-bromostyryl Phenyl Sulfone]
viability at 5 µM (LnCaP and MCF-7 cells): 68%

Structure (SMILES): O=S(=O)(/C=C/c1ccc(Cl)cc1)c1ccc(Cl)cc1 [Example 5, E-4-chlorostyryl 4-chlorophenyl Sulfone]
viability at 5 µM (LnCaP and MCF-7 cells): 64%

Structure (SMILES): Cc1ccc(/C=C/S(=O)(=O)c2ccc(Cl)cc2)cc1 [Example 6, E-4-methylstyryl 4-chlorophenyl Sulfone]
viability at 5 µM (LnCaP and MCF-7 cells): 92%

Structure (SMILES): COc1ccc(/C=C/S(=O)(=O)c2ccc(Cl)cc2)cc1 [Example 7, E-4-methoxystyryl 4-chlorophenyl Sulfone]
viability at 5 µM (LnCaP and MCF-7 cells): 90%

Structure (SMILES): O=S(=O)(/C=C/c1ccc(Br)cc1)c1ccc(Cl)cc1 [Example 8, E-4-bromostyryl 4-chlorophenyl Sulfone]
viability at 5 µM (LnCaP and MCF-7 cells): 69%

Structure (SMILES): O=S(=O)(/C=C/c1ccccc1Cl)Cc1ccccc1 [Example 9, E-2-chlorostyryl Benzyl Sulfone]
viability at 5 µM (LnCaP and MCF-7 cells): 94%

Structure (SMILES): O=S(=O)(/C=C/c1ccc(Cl)cc1)Cc1ccccc1 [Example 10, E-4-chlorostyryl Benzyl Sulfone]
viability at 5 µM (LnCaP and MCF-7 cells): 87%

Structure (SMILES): O=S(=O)(/C=C/c1ccc(Cl)cc1)Cc1ccc(Cl)cc1 [Example 12, E-4-chlorostyryl 4-chlorobenzyl Sulfone]
viability at 5 µM (LnCaP and MCF-7 cells): 49%
inhibition of growth and induction of death of LnCaP, BT-20 and MCF-7 cells [1]: substantially inhibit the growth and induce the death
viability at 48 h, 5 µM [2]: > 80%
viability at 48 h [2]: > 80%

Structure (SMILES): O=S(=O)(/C=C/c1ccc(F)cc1)Cc1ccc(F)cc1 [Example 13, E-4-fluorostyryl 4-fluorobenzyl Sulfone]
viability at 5 µM (LnCaP and MCF-7 cells): 43%

Structure (SMILES): O=S(=O)(/C=C/c1ccc(F)cc1F)Cc1ccc(F)cc1 [Example 14, E-2,4-difluorostyryl 4-fluorobenzyl Sulfone]
viability at 5 µM (LnCaP and MCF-7 cells): 56%
inhibition of growth and induction of death of LnCaP, BT-20 and MCF-7 cells [1]: substantially inhibit the growth and induce the death
viability at 48 h, 5 µM [2]: > 80%
viability at 48 h [2]: > 80%

Structure (SMILES): O=S(=O)(/C=C/c1ccc(F)cc1)Cc1ccc(Br)cc1 [Example 15, E-4-fluorostyryl 4-bromobenzyl Sulfone]
viability at 5 µM (LnCaP and MCF-7 cells): 7%
GI50 (H157; Homo sapiens, NCI-H157): < 1 µM
GI50 (DU145; Homo sapiens, DU-145): 2.5 µM
GI50 (DLD-1; Homo sapiens, DLD-1): < 1 µM
GI50 (MIA-PaCa-2; Homo sapiens, MIA PaCa-2): < 1 µM
GI50 (U87; Homo sapiens, U-87 MG): 1 to 2 µM
GI50 (BT20; Homo sapiens, BT-20): 1 to 2 µM
GI50 (SK-MEL-28): 1 to 2 µM
inhibition of growth and induction of death of LnCaP, BT-20 and MCF-7 cells [1]: substantially inhibit the growth and induce the death
viability at 48 h, 5 µM [2]: > 80%
viability at 48 h [2]: > 80%

Structure (SMILES): O=S(=O)(/C=C/c1ccc(Br)cc1)Cc1ccc(Br)cc1 [Example 16, E-4-bromostyryl 4-bromobenzyl Sulfone]
viability at 5 µM (LnCaP and MCF-7 cells): 51%

Structure (SMILES): O=S(=O)(/C=C/c1ccc(Br)cc1)Cc1ccc(F)cc1 [Example 17, E-4-bromostyryl 4-fluorobenzyl Sulfone]
viability at 5 µM (LnCaP and MCF-7 cells): 42%
inhibition of growth and induction of death of LnCaP, BT-20 and MCF-7 cells [1]: substantially inhibit the growth and induce the death
viability at 48 h, 5 µM [2]: > 80%
viability at 48 h [2]: > 80%

Structure (SMILES): O=S(=O)(/C=C/c1ccc(Cl)cc1)Cc1ccc(Br)cc1 [Example 18, E-4-chlorostyryl 4-bromobenzyl Sulfone]
viability at 5 µM (LnCaP and MCF-7 cells): 7%
activity (growth inhibition and cell death) [3]: highly active

Structure (SMILES): O=S(=O)(/C=C/c1ccc(Br)cc1)Cc1ccc(Cl)cc1 [Example 19, E-4-bromostyryl 4-chlorobenzyl Sulfone]
viability at 5 µM (LnCaP and MCF-7 cells): 20%
activity (growth inhibition and cell death) [3]: highly active

Structure (SMILES): O=S(=O)(/C=C\c1ccccc1)/C=C/c1ccc(F)cc1 [Example 20, (Z)-styryl-(E)-4-fluorostyryl Sulfone]
viability at 5 µM (LnCaP and MCF-7 cells): 76%

Structure (SMILES): O=S(=O)(/C=C\c1ccccc1)/C=C/c1ccc(Br)cc1 [Example 21, (Z)-styryl-(E)-4-bromostyryl Sulfone]
viability at 5 µM (LnCaP and MCF-7 cells): 68%

Structure (SMILES): O=S(=O)(/C=C\c1ccccc1)/C=C/c1ccc(Cl)cc1 [Example 22, (Z)-styryl-(E)-4-chlorostyryl Sulfone]
viability at 5 µM (LnCaP and MCF-7 cells): 72%

Structure (SMILES): O=C(C(=Cc1ccc(F)cc1)S(=O)(=O)c1ccc(F)cc1)c1ccccc1 [Example 23, 2-[(4-fluorophenyl)sulfonyl]-1-phenyl-3-(4-fluorophenyl)-2-propen-1-one]
viability at 5 µM (LnCaP and MCF-7 cells): 76%

Structure (SMILES): O=C(C(=Cc1ccc(F)cc1)S(=O)(=O)c1ccccc1Cl)c1ccccc1 [Example 24]
% viable LnCaP and MCF-7 cells (LnCaP and MCF-7 cells): 64%

Structure (SMILES): O=C(C(=Cc1ccc(Br)cc1)S(=O)(=O)c1ccccc1Cl)c1ccccc1 [Example 25, 2-[(2-chlorophenyl)sulfonyl]-1-phenyl-3-(4-bromophenyl)-2-propen-1-one]
viability at 5 µM (LnCaP and MCF-7 cells): 72%

Structure (SMILES): O=C(C(=Cc1ccc(Br)cc1)S(=O)(=O)c1ccc(Cl)cc1)c1ccccc1 [Example 26, 2-[(4-chlorophenyl)sulfonyl]-1-phenyl-3-(4-bromophenyl)-2-propen-1-one]
viability at 5 µM (LnCaP and MCF-7 cells): 58%

Structure (SMILES): O=C(C(=Cc1ccc(Br)cc1)S(=O)(=O)c1ccccc1[N+](=O)[O-])c1ccccc1 [Example 27, 2-[(2-nitrophenyl)sulfonyl]-1-phenyl-3-(4-bromophenyl)-2-propen-1-one]
viability at 5 µM (LnCaP and MCF-7 cells): 74%

GI50 (H157): 1.5 µM
GI50 (DU145): 2 µM
GI50 (DLD-1): 0.8 µM
GI50 (MIA-PaCa-2): 1 µM
GI50 (U87): 1.8 µM
GI50 (BT20): 0.9 µM
Structure (SMILES): O=S(=O)(/C=C/c1ccc(F)cc1Cl)Cc1ccc(Cl)cc1 [Example 36, E-(2)-chloro-4-fluorostyryl-4-chlorobenzylsulfone]

Structure (SMILES): N.N.[Cl][Pt][Cl] [cisplatin, cis-diamminedichloroplatinum II, reference compound]
concentration required to completely kill cells (LnCaP cells): 25 µM
concentration required to completely kill cells (DU145 cells): 15 µM

Reference: US6548553B2, “Styryl sulfone anticancer agents” (Temple University-of the Commonwealth System of Higher …, priority 1997, dated 2003)
